From patent publication US20220387544A1, “NOVEL THERAPEUTIC USE” (Artios Pharma Limited, priority 2019, published 2022)

Tests used:
Type in all cases: cell-based
[1] = tested on: Shieldin-defective, PARPi-resistant SUM149 cells; assay: Re-sensitisation to olaparib
Experimental: For measurement of re-sensitisation to Olaparib, exponentially growing cells were exposed to Compound A for 48 hours. After, cells were seeded in 96-well plates at a concentration of 1000-2000 cells per well. 24 hours post-seeding, Olaparib treatment was initiated and cells were continuously exposed to the drug with media and drug replenished every 72 hours. After 10 days, cell viability was estimated using Cell-Titre Glo (Promega). SFs were calculated and drug sensitivity curves plotted as previously described (Farmer et al Nature (2005) 434, 917-921).
Briefly, parental SUM149 cells or derivatives with either BRCA1 restored or with genetic deletion of either C20orf196 or 53BP1 were treated with Compound A in a tissue culture flask for 48 hours. The cells were then washed before seeding at low density in 96 well plates. 24 hours post seeding, cells were incubated with either olaparib or DMSO for a further 10 days. The relative survival normalised to untreated cells was measured using Cell-Titre Glo.

[2] = tested on: parental and SHLD2 KO MDA-MB-436 cells; assay: Colony formation assay, MDA-MB-436; conditions: SHLD2 KO vs parental MDA-MB-436 cells, colony solubilization protocol
Experimental: (§1) 1 mL of cells were seeded per well in a 24-well plate in triplicate and incubated overnight at 37° C. Cells were treated with a seven-point dose response curve with a one-in-three serial dilution of compound for the timepoints listed in Table 5. For MDA-MB-436 cells media was replenished every five days.
(§2) Cells were fixed with 70% ethanol for 20 minutes at room temperature with shaking. Cells were then stained with 0.04% Crystal Violet (Sigma Aldrich) for 20 minutes at room temperature with shaking. Cells were washed 6 times with water and air-dried overnight.
(§3) Plates were imaged using a Gelcount (Oxford Optronix), and colonies were counted using parameters optimized for each cell line. […] Colonies were solubilized using 10% acetic acid (VWR) for 30 minutes, absorbance at 595 nm was read using the Clariostar plate reader (BMG Labtech), and blank correction was applied. Relative Survival was calculated by normalization of compound treated wells to DMSO treated wells.
(§4) The effect of a DNA polymerase theta (Polθ) inhibitor (Compound A) and the PARP inhibitor olaparib on the survival of parental and SHLD2 deleted (SHLD2 KO) MDA-MB-436 cells was investigated by colony formation assay. Briefly, each population was seeded at low density, incubated with different concentrations of the compound and the relative survival normalized to untreated cells was measured with the colony solubilization protocol.

[3] = tested on: parental and SHLD2 KO HCC1395 cells; assay: Colony formation assay, HCC1395; conditions: SHLD2 KO vs parental HCC1395 cells, colony solubilisation protocol
Experimental: as §1, §2, §3
as §4, with “[…]” for “(Polθ)”, “HCC1395” for “MDA-MB-436”, “solubilisation” for “solubilization”

[4] = tested on: RPE1 TP53-/-BRCA1-/-cells; assay: siRNA screen for Compound A sensitivity in BRCA1 defective RPE1; conditions: for Drug Effect (DE) Z-score: BRCA1 defective RPE1
Description: (§5) An siRNA library was purchased from Dharmacon. Each well contained a SMART pool of four distinct siRNA species targeting different sequences of the target transcript, as well as individual siRNA targeting components of the Shieldin complex. Each plate was supplemented with negative siCONTROL (12 wells; Dharmacon) and positive control (four wells, siPLK1, Dharmacon). RNAi screening conditions were optimized and raw CellTitre-Glo (Promega) luminescent viability readings were generated as previously described (Lord et al DNA Repair (2008) 7, 2010-2019). Compound A or vehicle (DMSO) was added 24 h after transfection at 5 μM (CAL51) or 10 μM (RPE TP53-/-BRCA1-defective) concentration in media and cells were exposed for 5 days. Statistical analysis of the siRNA screen was performed as described elsewhere (Lord et al DNA Repair (2008) 7, 2010-2019). In brief, luminescence values from CellTitre-Glo assays in Compound A and DMSO exposed cells were log2 transformed and then normalized to plate median (PM) effects. Drug Effect (DE) scores were calculated from PM normalized data using the equation: DE=(log2 PM normalized signal of siRNA in the presence of Compound A)—(log2 PM normalized signal of siRNA in the absence of Compound A). DE values were then Z-score standardized according to screen median and median absolute deviation values.
To discover genes that are synthetic lethal with Polθ inhibitor in cells lacking DSBR through homologous recombination, an siRNA screen using 1418 siRNAs was performed using BRCA1 defective RPE1 TP53-/-BRCA1-/-cells. The screen was performed and analysed as described in FIG. 8 for the CAL51 screen. REV7 and SHLD2 (FAM35A) were two of the top hits (FIG. 8(a)), confirming the link between SHLD component defects and Polθ inhibitor sensitivity.

[5] = tested on: CAL51 breast cancer cells; assay: siRNA screen for Compound A sensitivity in CAL51
Description: as §5
To discover genes that are synthetic lethal with Polθ inhibitors, an siRNA screen using 1280 siRNAs was performed using CAL51 breast cancer cells. The cells were transfected with siRNA SMARTPools in a 384 well plate arrayed format then, twenty-four hours later, exposed to either DMSO or Compound A. Cells were then continuously cultured in the presence of Compound A or DMSO for a further five days, at which point the viability of cells was measured using CellTitre-Glo reagent (a luminescence assay measuring cellular ATP levels). Luminescence values from each well of the 384 well plate were log2 transformed and then normalized to the median signal on each plate (to account for plate to plate variation). By comparing normalized values for each siRNA SMARTPool in DMSO and Compound A-exposed cells, the effect of each siRNA on Compound A sensitivity was calculated, being expressed as a Drug Effect (DE) Z score.

[6] = non-targeting siRNA Allstar control

## Cc1cccc(N(C)C(=O)[C@@H]2[C@H](O)CCN2c2nc(C)cc(C(F)(F)F)c2C#N)c1 [Compound A, (2S,3R)-1-(3-cyano-6-methyl-4-(trifluoromethyl)pyridin-2-yl)-3-hydroxy-N-methyl-N-(m-tolyl)pyrrolidine-2-carboxamide]
[1]; Compound A 10 μM 48 hours then olaparib 1 μM 10 days, SUM149 C20orf196 and SUM149 53BP1 cells
  sensitivity to olaparib after pre-treatment: induced sensitivity
[1]; Compound A 10 μM for 48 hours then DMSO, SUM149 cells and derivatives
  effect on survival of 48 hours treatment alone: no effect on survival
[2]
  sensitivity by relative survival: significantly more sensitive
[3]
  sensitivity by relative survival: significantly more sensitive
[4]; BRCA1 defective RPE1 cells, 10 μM, 5 days
  sensitivity caused by siRNAs targeting FAM35A or REV7 (DE<−2): caused sensitivity
[4]; [6]
  Drug Effect (DE) Z-score: 1.3
[4]; non-targeting siRNA siCON1
  Drug Effect (DE) Z-score: −0.8
[4]; non-targeting siRNA siCON2
  Drug Effect (DE) Z-score: −0.6
[5]; [6]
  Drug Effect (DE) Z-score: 1.0
[5]; non-targeting siRNA siCON1
  Drug Effect (DE) Z-score: 0.8
[5]; non-targeting siRNA siCON2
  Drug Effect (DE) Z-score: 1.0
[5]; siRNA pool targeting REV7, 5 μM, 5 days, median of triplicate screens
  Drug Effect (DE) Z-score: −2.88
